Measurements: patent publication US20250205204A1, “Transcription Factor Brn2 Inhibitory Compounds for Use as Therapeutics” (The University of British Columbia, priority 2021, published 2025)
“Also recorded” adds a separate entry of the source. Read-outs that look alike come from different tables or passages of the source.

How the values were obtained:
42D^ENZR cells = assay: Cell proliferation, BRN2 expressing 42D cells (crystal violet); type: cell-based; details: for Growth Specificity: 42D (express BRN2) versus 16D (no BRN2) cells, result in words
Protocol: (§1) Step 3: Cell Proliferation
(§2) Plate 42DE^NZR (˜7000 cells per well) and 16D^CRPC (˜5000 cells per well) cells in 96 well plate with a volume of 100 μL per well. • 2. Next day 1 mL aliquots of media are combined with 3× the desired concentration of compounds. The aliquots are vortexed and 50 μL of each 3× concentration is added to the 100 μL of media in each well to give the ix desired concentration.
(§3) The following are the desired concentrations:
(§4) Approximately 72 hours later, 17 μL of 10% Glutaraldehyde is added to each well and plates are placed on a shaker for 20-30 minutes. • 4. Media is washed off the fixed cells by slow submersion in a container of water. Then the water is removed by tapping the plate upside down. • 5. 75 μL of Crystal Violet™ solution is added into the 96 well plates and placed on a shaker for ˜30 minutes. • 6. Media is washed off the fixed cells by repeated slow submersion in a container of water and the plates are allowed to dry over-night. • 7. Next day, 75 μL of Sorensen Solution is accurately pipetted into each well. The plates placed on a shaker for ˜30 minutes. • 8. Absorbance is measured in the plate at 590 nm.
There is a distinction in TABLES 1 and 2 difference between “Active” and “Specific” or “Specificity”.

BRN2 = molecular target: T1, BRN2 (Homo sapiens, UniProt P20265); assay: BLI binding; details: result in words
T1 sequence (P20265 1-443): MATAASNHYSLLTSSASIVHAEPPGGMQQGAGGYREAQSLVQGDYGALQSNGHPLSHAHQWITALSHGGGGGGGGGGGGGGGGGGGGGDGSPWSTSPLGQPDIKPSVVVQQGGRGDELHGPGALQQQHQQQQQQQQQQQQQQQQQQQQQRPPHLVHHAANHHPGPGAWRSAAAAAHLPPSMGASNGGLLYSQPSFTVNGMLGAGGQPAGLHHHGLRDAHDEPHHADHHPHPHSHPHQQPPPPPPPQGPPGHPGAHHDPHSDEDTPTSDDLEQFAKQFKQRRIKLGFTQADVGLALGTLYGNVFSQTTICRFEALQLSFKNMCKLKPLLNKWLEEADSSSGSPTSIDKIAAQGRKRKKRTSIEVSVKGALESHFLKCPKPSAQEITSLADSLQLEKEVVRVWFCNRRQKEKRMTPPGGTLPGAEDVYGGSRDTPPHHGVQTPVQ

16D^CRPC cells = assay: Cell proliferation, 16D cells that do not express BRN2 (crystal violet); type: cell-based; details: for concentration above which 16D is affected: proliferation; for effect on 16D: result in words
Protocol: as §1, §2, §3
as §4, with “0, 10 nM, 100 nM, 500 nM, 1 μM, 2.5 μM, 5 μM, 10 μM, 15 μM, 20 μM, 30 μM. • 3. Approximately” for “Approximately”, “nm. Compounds that Show Specificity Towards 42DE^NZR Cells Vs 16D^CRPC Cells Progress to Step 4.” for “nm.”
(§5) In TABLES 1 and 2, in columns Met Stab % and T½, refers to compound's stability in MLM. There is a distinction in TABLES 1 and 2 difference between “Active” and “Specific” or “Specificity”. Some of the compounds were first tested to quantify inhibition of BRN2 transcriptional activity in a luciferase assay to determine BRN2 inhibition at 10 μM and 30 μM concentrations. […] Generally, compounds having low inhibitory activity were compounds with less than about ˜30% or activation at either concentration (i.e. 10 μM or 30 μM). Furthermore, some compounds that lacked specificity could also show off-target effects.

[1] = Metabolic stability in liver microsomes (MLM); type: in vitro ADME, mice; details: 0.25 mg/mL protein; for half-life at 1 μM: mouse, liver microsomes, pH 7.4, 1 μM compound, read-out: T1/2 in mins (MLM); for Met Stab % (60 mins) MLM: percent remaining at 60 min, 1 μM compound, 1 mM NADPH
Protocol: Preparation of Potassium Phosphate Buffer, 50 mM (pH 7.4)
Potassium phosphate buffer (Kphos) was prepared by adding 0.647 g potassium phosphate monobasic (KH2PO4) and 3.527 g potassium phosphate dibasic (KH2PO4) to 400 mL of Milli-Q™ water. pH of the buffer was adjusted to 7.4 and volume was made up to 500 mL.
Preparation of Microsomes
Stock solutions of BRN2 inhibitors were prepared in DMSO at a concentration of 1 mM
Preparation of NADPH Solution
• Total Incubation volume: 100 μL • Compound concentration: 1 μM • Protein Concentration: 0.25 mg/mL • NADPH: 1 mM • Final DMSO contain: 0.1% • Number of replicates: 2 • Time points: 0, 5, 15, 30 and 60 min
From the above mix, 70 μL was added to individual wells of 96 well reaction plates and pre-incubated in a 37° C. water bath for 5 min. […] Reactions without NADPH and buffer controls (minus NADPH) at 0 min and 60 min were also incubated to rule out non-NADPH metabolism or chemical instability in the incubation buffer. All reactions were terminated using 100 μL of ice-cold acetonitrile containing internal standard at 0, 5, 15, 30 and 60 min.
Samples were monitored for parent compounds disappearance in MRM mode using LC-MS/MS.
The percent remaining of test compounds and positive control in each sample was determined by considering peak area ratio in the 0 minute sample as 100%. The Half-life of compounds in microsomes is calculated by formula: […]
In vitro intrinsic clearance (CL'int) (units in mL/min/kg) was calculated using the formula.
[formula] • For liver microsomes, scaling factor used was 45 mg microsomal protein per gm liver. • * Indicates liver weight (gm) which varies species wise. For mice the liver weights are 90 gm.

[2] = test system: BRN2 transcriptional activity; assay: BRN2-luciferase reporter activity in 42D^ENZR cells; type: cell-based; details: 24 hours
From the text: Step 1: Reporter Activity
Decreased expression of luciferase protein is validated via western blot to confirm downregulation and avoid false positive molecules that inhibit luciferase protein activity and not BRN2-drive luciferase expression. Molecules are prioritized by their inhibition potency to measure direct interaction with BRN2 in Step 2.
as §5

[3] = 42D cells, proliferation, about 72 hours, read-out: 42D IC50

Row | Compound | BLI binding (BRN2) | half-life at 1 μM [1] [min] | Met Stab % (60 mins) MLM [1] [%] | Growth Specificity (42D^ENZR cells; about 72 hours) | concentration above which 16D is affected (16D^CRPC cells) [µM] | IC50 (42D^ENZR cells; [3]) [µM] | effect on 16D (16D^CRPC cells) | inhibition at 10 µM [2] [%] | inhibition at 30 µM [2] [%] | IC50 (42D^ENZR cells; read-out: IC50 (effective on both 42D and 16D cells)) [µM]
1 | O=C1/C(=N\Nc2nc3ccccc3s2)Cc2cc(C(F)(F)F)ccc21 [7-108] | Positive binding | > 60 | 68 | Specific to 42D cells until 10 μM; also recorded: Specific to 42D cells up to 10 μM | > 15 |  |  |  |  | 
2 | Fc1ccc2c(c1)CC/C2=N/Nc1nc2ccccc2s1 [7-57] | Positive | 8 | 0 | Specific to 42D |  | 10 | no effect on 16D |  |  | 
3 | c1ccc2c(c1)CC/C2=N\Nc1nc2ccccc2[nH]1 [VPC-8] |  |  |  | 42D and 16D non-specific |  |  |  | 84.5 | 96.1 | 
4 | c1ccc2sc(N/N=C3/CCc4ccncc43)nc2c1 [7-66] |  | 8 | 1 | Specific to 42D |  | 10 | no effect on 16D |  |  | 
5 | O=C1/C(=N\Nc2nc3ccccc3s2)Cc2ccc(Cl)cc21 [7-72] |  | 17 | 8 | Specific to 42D at low doses | > 15 |  |  |  |  | 
6 | O=C1/C(=N\Nc2nc3ccccc3s2)Cc2cc(F)ccc21 [7-70, (Z)-2-(2-(benzo[d]thiazol-2-yl)hydrazineylidene)-5-fluoro-2,3-dihydro-1H-inden-1-one] | Positive binding | 50 | 38 | Specific to 42D |  | ~5 |  |  |  | 
7 | c1ccc2c(c1)CC/C2=N\Nc1nc2ccccc2s1 [VPC-7] |  |  |  | 42D not 16D |  |  |  | 82.1 | 97.8 | 
8 | c1ccc2c(c1)CC/C2=N\Nc1ccc2ccccc2n1 [VPC-39] |  |  |  | non-specific |  |  |  | 99 | 99.9 | 
9 | O=C1/C(=N\Nc2nc3ccccc3s2)Cc2cccc(C(F)(F)F)c21 [7-106] | Positive binding | 46 | 38 | Specific to 42D cells |  | ~2 |  |  |  | 
10 | COC(=O)c1ccc2c(c1)C(=O)/C(=N\Nc1nc3ccccc3s1)C2 [7-110] | No binding | 32 | 25 | No activity |  |  |  |  |  | 
11 | CCc1ccc2c(c1)C/C(=N/Nc1nc3ccccc3s1)C2=O [7-104] | No binding | 25 | 17 | Not specific |  |  |  |  |  | 
12 | O=C1/C(=N\Nc2nc3ccccc3s2)Cc2cc(C3CC3)ccc21 [7-105] | No binding | > 60 | 75 | Not specific |  |  |  |  |  | 

Further lines, with some results ahead:

Row | BLI binding (BRN2) | half-life at 1 μM [1] [min] | Met Stab % (60 mins) MLM [1] [%] | Compound | Growth Specificity (42D^ENZR cells; about 72 hours) | concentration above which 16D is affected (16D^CRPC cells) [µM] | IC50 (42D^ENZR cells; [3]) [µM] | effect on 16D (16D^CRPC cells) | inhibition at 10 µM [2] [%] | inhibition at 30 µM [2] [%] | IC50 (42D^ENZR cells; read-out: IC50 (effective on both 42D and 16D cells)) [µM]
13 |  | 6 | 0 | Fc1cccc2nc(N/N=C3/CCc4ccccc43)sc12 [7-65] | Specific to 42D |  | 10 | no effect on 16D |  |  | 
14 | Positive binding | 26 | 19 | CC(C)Oc1ccc2c(c1)C/C(=N/Nc1nc3ccccc3s1)C2=O [7-73, (Z)-2-(2-(benzo[d]thiazol-2-yl)hydrazineylidene)-5-isopropoxy-2,3-dihydro-1H-inden-1-one] | Specific to 42D at low doses | > 15 |  |  |  |  | 
15 | Positive binding | 17 | 6 | CC(C)Oc1ccc2c(c1)C(=O)/C(=N\Nc1nc3ccccc3s1)C2 [7-74, (Z)-2-(2-(benzo[d]thiazol-2-yl)hydrazineylidene)-6-isopropoxy-2,3-dihydro-1H-inden-1-one] | Specific to 42D at low doses | > 20 |  |  |  |  | 
16 | inconclusive, needs to be repeated | 31 | 22 | Cc1ccc2c(c1)C/C(=N/Nc1nc3ccccc3s1)C2=O [7-96] | Specific but weak |  | ~15 |  |  |  | 
17 | Positive | 23 | 9 | O=C1C/C(=N/Nc2nc3ccccc3s2)c2ccccc21 [7-52] | effective on both 42D and 16D cells |  |  |  |  |  | 3 to 7
18 | No binding | 27 | 18 | CC(C)(C)OC(=O)c1ccc2c(c1)C(=O)/C(=N\Nc1nc3ccccc3s1)C2 [7-119] | Not specific |  |  |  |  |  | 
19 | Positive binding | 48 | 41 | N#Cc1ccc2c(c1)C(=O)/C(=N\Nc1nc3ccccc3s1)C2 [7-92] | Specific but weak |  | ~15 |  |  |  | 
20 | Positive binding but not strong | 56 | 46 | O=C1/C(=N\Nc2nc3ccccc3s2)Cc2cc(F)cc(F)c21 [7-102] | Specific to 42D cells |  | ~2.5 |  |  |  | 
